Entries after “also recorded” stand apart in the source; their conditions may differ.
Assays:
RAW 264.7 cells = test: TNF production by RAW 264.7 cells, dilution for 50% killing of indicator cell line L929; type: cell-based, murine; conditions: for Dilution to get 50% killing: Table 1; for Dilution for 50% killing: Table 3
Procedure: The TNF unit is derived by determining how far one can dilute the supernatant of the culture to achieve 50% killing of an indicator cell line.
TNF unit was derived by determining dilution of culture supernatant that kills 50 percent of the indicator cell line.
DPLA was added 2 hours before exposing culture to ReLPS. The ReLPS and DPLA were complexed with bovine serum albumin.^1

mice = test: LD50 in galactosamine-sensitized mice; type: in vivo
Procedure: Although the diphospholipids from E. coli and Salmonella strains are highly toxic, DPLA having the structure of the diphosphoryllipid A from R. sphaeroides is not. The LD50 of DPLA in galactosamine--sensitized mice was greater than 20 mg/kg.

[1] = system: RAW 264.7 murine macrophage cells; test: Cachectin/TNF production by RAW 264.7 cells, immunoblot; type: cell-based
Procedure: For the […] to activate the RAW 264.7 murine macrophage cell line, we chose the toxic deep rough chemotype LPS (ReLPS) from Escherichia coli D31m4, which was recently purified and characterized^15. […] This is a clear example of a lipid A derivative showing strong antagonism against a toxic agonist in the induction of cachectin.
The immunoblot method was used to quantitate the cachectin/TNF production by RAW 264.7 murine macrophage cells. RAW 264.7 cells^4,16 were seeded in 24-well plates (Nunc) at a density of 3×10^5 cells/well in Dulbecco's modified Eagle's medium supplemented with 5 percent fetal calf serum. After 12 hours, cell monolayers were washed twice with 1 ml of serum-free medium and then left covered with […] of the same. An aqueous suspension of DPLA and/or ReLPS was then added to a final concentration indicated. Cells were incubated for 12 hours, after which the medium was removed for measurement of TNF by immunoblotting. One hundred μl of medium was mixed with 100 μl of SDS-containing sample buffer, heated to 100° C. for 5 minutes, and subjected to electrophoresis in a 10-15% polyacrylamide gradient gel. Proteins were then transferred to nitrocellulose electrophoretically, and TNF was visualized through the use of a rabbit anti-mouse TNF polyclonal serum^3,5 applied at a 1:100 dilution, followed by alkaline phosphatase-conjugated goat anti-rabbit IgG (Bio-Rad).
Bands were visualized using nitroblue tetrazolium. Approximately 0.1 ng of cachectin/TNF may be detected as a band. The antiserum also recognized the processing intermediates (prohormones) on Western blot.

chick embryo = test: Chick embryo lethality test; type: in vivo
Procedure: It was characterized as the tetramethyl derivative by plasma desorption mass spectrometry. It is nontoxic based on the chick embryo lethality test (CELD50 >20 μg), and its structure is shown in Formula II.

peritoneal macrophages = test: Induction of IL-1 in thioglycollate-elicited peritoneal macrophages (comitogenic thymocyte assay); type: cell-based, BDF1 mice; conditions: for IL-1 induction, CPM: SD in parentheses; for induction of IL-1 release: DPLA alone 0.1, 1.0, 10 μg/ml
Procedure: 1L-1 assay--Peritoneal exudate cells were harvested from BDF1 mice 48 h after an intraperitoneal injection of thioglycollate. […] Macrophages were either pretreated with R. sphaeroides DPLA (0.1-10 μg/ml) followed by the addition of toxic Re LPS (0.1 μg) after 2 h, or immediately stimulated with Re LPS (0.01-1.00 μg/ml). Control wells were treated with 10 μl of media containing 0.5% triethylamine. Cultures were incubated at 37° C. in the presence of 5% CO2 for 18 h at which time the supernatants were collected and frozen at -20° C. until assayed. 1L-1 activity was determined by the comitogenic thymocyte assay.^25
Peritoneal exudate cells were harvested from BDF1 mice 48 h after an intraperitoneal injection of thioglycollate as described previously (Lederer and Czuprynki). Macrophages were either pretreated with R. sphaeroides DPLA (0.1-10 μg/ml) followed by addition of toxic ReLPS (0.1 μg), or immediately stimulated with ReLPS (0.01-1.00 μg/ml). Control wells were treated with 10 μl of media with 0.5% triethylamine. Cultures were incubated at 37° C. in the presence of 5% CO2 for 18 h at which time the supernatants were collected and frozen at -20° C. until assayed.
ReLPS was added to the culture 2 h after adding the R. sphaeroides DPLA. […] Standard deviation in CPM are given in parentheses.

[2] = DPLA 10 ng/ml 2 h before ReLPS 1.0 ng/ml
[3] = DPLA 100 ng/ml 2 h before ReLPS 1.0 ng/ml
[4] = DPLA 1000 ng/ml 2 h before ReLPS 1.0 ng/ml

## CCCCCCC=CCCCCCC(=O)OC(CCCCCCCCCCC)CC(=O)NC1C(OCC2OC(OP(=O)(O)O)C(NC(=O)CC(=O)CCCCCCCCCCC)C(OC(=O)CC(O)CCCCCCC)C2O)OC(CO)C(OP(=O)(O)O)C1OC(=O)CC(O)CCCCCCC (stereo not shown) [DPLA]
RAW 264.7 cells; RAW 264.7 cells, in words
  blocking of TNF induction by ReLPS: effectively antagonize the induction of TNF by toxic ReLPS in a dose-dependent manner; also recorded: block the induction of cachectin (TNF); also recorded: blocking of induction
RAW 264.7 cells; [2]
  Dilution to get 50% killing: 829
  Dilution for 50% killing: 2287
RAW 264.7 cells; [3]
  Dilution to get 50% killing: 112
  Dilution for 50% killing: 269
RAW 264.7 cells; [4]
  Dilution to get 50% killing: 86
  Dilution for 50% killing: 201
RAW 264.7 cells; DPLA 10,000 ng/ml 2 h before ReLPS 1.0 ng/ml
  Dilution to get 50% killing: 234
RAW 264.7 cells; DPLA alone 10 ng/ml
  Dilution to get 50% killing: 0
RAW 264.7 cells; DPLA alone 100 ng/ml
  Dilution to get 50% killing: 0
RAW 264.7 cells; DPLA alone 1000 ng/ml
  Dilution to get 50% killing: 71
RAW 264.7 cells; DPLA alone 10,000 ng/ml
  Dilution to get 50% killing: 346
RAW 264.7 cells; DPLA 10000 ng/ml 2 h before ReLPS 1.0 ng/ml
  Dilution for 50% killing: 973
RAW 264.7 cells; DPLA alone 10 ng/ml, complexed with BSA
  Dilution for 50% killing: < 10
RAW 264.7 cells; DPLA alone 100 ng/ml, complexed with BSA
  Dilution for 50% killing: 19
RAW 264.7 cells; DPLA alone 1000 ng/ml, complexed with BSA
  Dilution for 50% killing: 201
RAW 264.7 cells; DPLA alone 10000 ng/ml, complexed with BSA
  Dilution for 50% killing: 764
mice
  LD50: greater than 20 mg/kg
[1]; DPLA 1-1000 ng/ml
  induction of cachectin (immunoblot): not able to induce the formation of cachectin
[1]; DPLA 10^3 ng/ml + ReLPS 10 ng/ml (ReLPS:DPLA 1:100)
  inhibition of ReLPS-induced cachectin (immunoblot): definite inhibition
[1]; DPLA 10^4 ng/ml
  induction of cachectin (immunoblot): only slight induction
[1]; in words
  blocking of ReLPS-induced cachectin/TNF (immunoblot): blocks the induction of cachectin; also recorded: blocking of induction
[1]; with ReLPS 10 ng/ml
  DPLA concentration at which inhibition was probably maximal: < 10^4 ng/ml
Chick embryo
  CELD50: > 20 µg
Peritoneal macrophages; DPLA 0.1 μg/ml 2 h before ReLPS 0.1 μg/ml
  IL-1 induction, CPM: 51,999 (4860) CPM
Peritoneal macrophages; DPLA 0.1 μg/ml + ReLPS 0.1 μg/ml
  IL-1 induction, CPM - Blank: 44,211 CPM
Peritoneal macrophages; DPLA 1.0 μg/ml 2 h before ReLPS 0.1 μg/ml
  IL-1 induction, CPM: 28,276 (4860) CPM
Peritoneal macrophages; DPLA 1.0 μg/ml + ReLPS 0.1 μg/ml
  IL-1 induction, CPM - Blank: 20,491 CPM
Peritoneal macrophages; DPLA 10.0 μg/ml 2 h before ReLPS 0.1 μg/ml
  IL-1 induction, CPM: 5,892 (886) CPM
Peritoneal macrophages; DPLA 10.0 μg/ml + ReLPS 0.1 μg/ml
  IL-1 induction, CPM - Blank: 0 CPM
Peritoneal macrophages; DPLA 10.0 μg/ml, ReLPS 0.1 μg/ml (1:100)
  % Inhibition of IL-1 induction by ReLPS: total
Peritoneal macrophages; DPLA alone 0.1 μg/ml
  IL-1 induction, CPM - Blank: 0 CPM
  IL-1 induction, CPM: 3,511 (616) CPM
Peritoneal macrophages; DPLA alone 1.0 μg/ml
  IL-1 induction, CPM - Blank: 0 CPM
  IL-1 induction, CPM: 2,911 (383) CPM
Peritoneal macrophages; DPLA alone 10.0 μg/ml
  IL-1 induction, CPM - Blank: 0 CPM
  IL-1 induction, CPM: 3,764 (785) CPM
Peritoneal macrophages; in words
  induction of IL-1 release: unable to induce interleukin-1 release; also recorded: no IL-1/releasing activity
  blocking of ReLPS-induced IL-1 release: blocked this activity by toxic deep rough chemotype LPS; also recorded: antogonize the induction of IL-1 release by toxic Re LPS; also recorded: blocked the release of IL-1
Peritoneal macrophages; in words, listed as pentaacyl DPLA
  induction of IL-1 release: unable to induce 1L-1
